Patent US20260256792A1, “TREATMENT OF CHRONIC SPONTANEOUS URTICARIA BY ADMINISTERING (R)-2-[3-[4-AMINO-3-(2-FLUORO-4-PHENOXY-PHENYL)PYRAZOLO[3,4-D]PYRIMIDIN-1-YL]PIPERIDINE-1-CARBONYL]-4-METHYL-4-[4-(OXETAN-3-YL)PIPERAZIN-1-YL]PENT-2-ENENITRILE” (priority 2023, published 2026)

System: moderate-to-severe chronic spontaneous urticaria (CSU)
Experiment: Phase 2 CSU study: urticaria activity score over 7 days (UAS7)
Assay type: in vivo, human
Conditions: Omalizumab-naïve, 400 mg QPM
Text: The study comprises a 12 week, randomized, double-blind, placebo-controlled, multi-center, dose-ranging efficacy and safety phase, followed by a 40 week open label extension (OLE) phase (see FIG. 1). The study consists of three phases and an optional OLE phase. […] Clinically, CSU is characterized by the spontaneous and recurrent appearance of pruritic hives. The proposed primary endpoints were the UAS7 at Week 12 in EU and EU reference countries and the ISS7 in the US. Regardless of where a participant was from, all assessments were the same. The UAS7 score is a composite score containing both the HSS7 and the ISS7. This allowed a global assessment of the two key components of urticaria: hives and itch. […] The UAS is a validated PRO measure. […] The daily UAS scores range from 0 to 6 point/day. […] Patients were to complete the UAS using the e-diary. […] The following secondary endpoints were to be analyzed using the same approach as for the primary endpoint: • Change from baseline in UAS7 at Week 4 • Change from baseline in UAS7 at Week 12 (for US and US reference countries) • Change from baseline in ISS7 at Week 12 (except US and US reference countries) • Change from baseline in HSS7 at Week 12 The following responder secondary endpoints were to be analyzed using the Cochran-Mantel-Haenszel test adjusted by region: • Proportion of participants with UAS7<6 at Week 12 • Proportion of participants with UAS7=0 at Week 12 Participants who received selected prohibited medications and/or rescue medications were to be considered as non-responders for time points after the medication usage. For other participants, all available data including those collected during the off-treatment period were to be used to determine the responder/non-responder status. Missing data were to be considered as non-responders.

CC(C)(C=C(C#N)C(=O)N1CCC[C@@H](n2nc(-c3ccc(Oc4ccccc4)cc3F)c3c(N)ncnc32)C1)N1CCN(C2COC2)CC1 [rilzabrutinib, (R)-2-[3-[4-amino-3-(2-fluoro-4-phenoxy-phenyl)pyrazolo[3,4-d]pyrimidin-1-yl]piperidine-1-carbonyl]-4-methyl-4-[4-(oxetan-3-yl)piperazin-1-yl]pent-2-enenitrile]
Non-responder n (%), UAS7 ≤6 (Week 1): 35 (94.6) n (%)
OR for rilzabrutinib vs. placebo, UAS7 = 0 (Week 1): 0.000 (NE,
RRD (%) for rilzabrutinib vs. placebo, UAS7 = 0 (Week 1): −2.9 %
RRD (%) for rilzabrutinib vs. placebo, UAS7 ≤6 (Week 1): −0.0%
Responder n (%), UAS7 = 0 (Week 1): 0 n (%)
Responder n (%), UAS7 ≤6 (Week 1): 2 (5.4) n (%)
Imputed non-responder n (%), UAS7 = 0 (Week 2): 0 n (%)
Imputed non-responder n (%), UAS7 ≤6 (Week 2): 0 n (%)
Non-responder n (%), UAS7 = 0 (Week 2): 37 (100) n (%)
Non-responder n (%), UAS7 ≤6 (Week 2): 36 (97.3) n (%)
OR for rilzabrutinib vs. placebo, UAS7 = 0 (Week 2): 0.000 (NE,
OR for rilzabrutinib vs. placebo, UAS7 ≤6 (Week 2): 0.489
RRD (%) for rilzabrutinib vs. placebo, UAS7 = 0 (Week 2): −2.9 %
RRD (%) for rilzabrutinib vs. placebo, UAS7 ≤6 (Week 2): −2.7%
Responder n (%), UAS7 = 0 (Week 2): 0 n (%)
Responder n (%), UAS7 ≤6 (Week 2): 1 (2.7) n (%)
Imputed non-responder n (%), UAS7 = 0 (Week 3): 0 n (%)
Imputed non-responder n (%), UAS7 ≤6 (Week 3): 0 n (%)
Non-responder n (%), UAS7 = 0 (Week 3): 37 (100) n (%)
Non-responder n (%), UAS7 ≤6 (Week 3): 35 (94.6) n (%)
OR for rilzabrutinib vs. placebo, UAS7 = 0 (Week 3): 0.000 (NE,
OR for rilzabrutinib vs. placebo, UAS7 ≤6 (Week 3): 0.666
RRD (%) for rilzabrutinib vs. placebo, UAS7 = 0 (Week 3): −2.9 %
RRD (%) for rilzabrutinib vs. placebo, UAS7 ≤6 (Week 3): −2.5%
Responder n (%), UAS7 = 0 (Week 3): 0 n (%)
Responder n (%), UAS7 ≤6 (Week 3): 2 (5.4) n (%)
Imputed non-responder n (%), UAS7 = 0 (Week 4): 1 (2.7) n (%)
Imputed non-responder n (%), UAS7 ≤6 (Week 4): 1 (2.7) n (%)
Non-responder n (%), UAS7 = 0 (Week 4): 37 (100) n (%)
Non-responder n (%), UAS7 ≤6 (Week 4): 35 (94.6) n (%)
OR for rilzabrutinib vs. placebo, UAS7 = 0 (Week 4): 0.000 (NE,
OR for rilzabrutinib vs. placebo, UAS7 ≤6 (Week 4): 0.486
RRD (%) for rilzabrutinib vs. placebo, UAS7 = 0 (Week 4): −5.3 %
RRD (%) for rilzabrutinib vs. placebo, UAS7 ≤6 (Week 4): −5.0%
Responder n (%), UAS7 = 0 (Week 4): 0 n (%)
Responder n (%), UAS7 ≤6 (Week 4): 2 (5.4) n (%)
Imputed non-responder n (%), UAS7 = 0 (Week 5): 2 (5.4) n (%)
Imputed non-responder n (%), UAS7 ≤6 (Week 5): 2 (5.4) n (%)
Non-responder n (%), UAS7 = 0 (Week 5): 36 (97.3) n (%)
Non-responder n (%), UAS7 ≤6 (Week 5): 35 (94.6) n (%)
OR for rilzabrutinib vs. placebo, UAS7 = 0 (Week 5): 0.923
OR for rilzabrutinib vs. placebo, UAS7 ≤6 (Week 5): 0.986
RRD (%) for rilzabrutinib vs. placebo, UAS7 = 0 (Week 5): −0.2 %
RRD (%) for rilzabrutinib vs. placebo, UAS7 ≤6 (Week 5): −0.1%
Responder n (%), UAS7 = 0 (Week 5): 1 (2.7) n (%)
Responder n (%), UAS7 ≤6 (Week 5): 2 (5.4) n (%)
Imputed non-responder n (%), UAS7 = 0 (Week 6): 4 (10.8) n (%)
Imputed non-responder n (%), UAS7 ≤6 (Week 6): 4 (10.8) n (%)
Non-responder n (%), UAS7 = 0 (Week 6): 36 (97.3) n (%)
Non-responder n (%), UAS7 ≤6 (Week 6): 34 (91.9) n (%)
OR for rilzabrutinib vs. placebo, UAS7 = 0 (Week 6): 0.923
RRD (%) for rilzabrutinib vs. placebo, UAS7 = 0 (Week 6): −0.2 %
RRD (%) for rilzabrutinib vs. placebo, UAS7 ≤6 (Week 6): −7.8%
Responder n (%), UAS7 = 0 (Week 6): 1 (2.7) n (%)
Responder n (%), UAS7 ≤6 (Week 6): 3 (8.1) n (%)
Imputed non-responder n (%), UAS7 = 0 (Week 7): 6 (16.2) n (%)
Imputed non-responder n (%), UAS7 ≤6 (Week 7): 6 (16.2) n (%)
Non-responder n (%), UAS7 = 0 (Week 7): 36 (97.3) n (%)
Non-responder n (%), UAS7 ≤6 (Week 7): 36 (97.3) n (%)
OR for rilzabrutinib vs. placebo, UAS7 = 0 (Week 7): 1.061
OR for rilzabrutinib vs. placebo, UAS7 ≤6 (Week 7): 0.249
RRD (%) for rilzabrutinib vs. placebo, UAS7 = 0 (Week 7): 0.2 %
RRD (%) for rilzabrutinib vs. placebo, UAS7 ≤6 (Week 7): −8.3%
Responder n (%), UAS7 = 0 (Week 7): 1 (2.7) n (%)
Responder n (%), UAS7 ≤6 (Week 7): 1 (2.7) n (%)
Imputed non-responder n (%), UAS7 = 0 (Week 8): 7 (18.9) n (%)
